Tests used:
CXCR4 L41A = experiment: 12G5 antibody competition, 293T cells transfected with CXCR4 L41A; format: binding, human; conditions: IC50 on CXCR4 L41A relative to wt
Description: (§1) Fig. 4 The interactions of EPI-X4 and the EPI-X4 derivatives WSC02 and JM#21 with point-mutated CXCR4 were assessed by an antibody competition assay. Amino acid substitutions were introduced in the sequence of CXCR4 by site-directed mutagenesis, cloned into an IRES-eGFP expression vector, and transfected into 293 T cells. Afterward, cells were incubated with serially diluted EPI-X4 (a, b), WSC02 (c, d), or JM#21 (e, f) in presence of a constant concentration of CXCR4 specific antibody (clone 12G5). After 2 h, bound antibody was analyzed by flow cytometry. a, c, e) Representative dose-dependent replacement of 12G5 antibody by peptides. b, d, f) IC50 values were calculated by nonlinear regression. Shown are data derived from at least three individual experiments ± SEM. IC50 values were set to 1000 µM (EPI-X4 and WSC02) or 100 µM (JM#21) if the value exceeds the maximally used concentration. *p ≤ 0.05, ***p ≤ 0.001 (one-way ANOVA for comparison with wt). For IC50 values see Table 1. For all binding curves see also Fig. S8.
(§2) Mutated CXCR4 constructs were transfected into 293 T cells that have a very low endogenous expression level of wild-type CXCR4. Transfected cells were then analyzed for CXCR4 surface expression (Fig. S5a) and EPI-X4 binding using a flow cytometry-based antibody competition assay (Fig. S5b, c)[33]. […]

CXCR4 D97E = experiment: 12G5 antibody competition, 293T cells transfected with CXCR4 D97E; format: binding, human; conditions: IC50 on CXCR4 D97E relative to wt
Description: as §1, §2

CXCR4 D97S = experiment: 12G5 antibody competition, 293T cells transfected with CXCR4 D97S; format: binding, human; conditions: IC50 on CXCR4 D97S relative to wt
Description: as §1, §2

CXCR4 D97N = experiment: 12G5 antibody competition, 293T cells transfected with CXCR4 D97N; format: binding, human; conditions: IC50 on CXCR4 D97N relative to wt
Description: as §1, §2

CXCR4 V112A = experiment: 12G5 antibody competition, 293T cells transfected with CXCR4 V112A; format: binding, human; conditions: IC50 on CXCR4 V112A relative to wt
Description: as §1, §2

CXCR4 V112L = experiment: 12G5 antibody competition, 293T cells transfected with CXCR4 V112L; format: binding, human; conditions: IC50 on CXCR4 V112L relative to wt
Description: as §1, §2

CXCR4 D187E = experiment: 12G5 antibody competition, 293T cells transfected with CXCR4 D187E; format: binding, human; conditions: IC50 on CXCR4 D187E relative to wt
Description: as §1, §2

CXCR4 D97E + V112L = experiment: 12G5 antibody competition, 293T cells transfected with CXCR4 D97E + V112L; format: binding, human; conditions: IC50 on CXCR4 D97E + V112L relative to wt
Description: as §1, §2

CXCR4 V112A + L41A = experiment: 12G5 antibody competition, 293T cells transfected with CXCR4 V112A + L41A; format: binding, human; conditions: IC50 on CXCR4 V112A + L41A relative to wt
Description: as §1, §2

[1] = system: CXCR4 D97E + V112A + L41A; experiment: 12G5 antibody competition, 293T cells transfected with CXCR4 D97E + V112A + L41A; format: binding, human; conditions: IC50 on CXCR4 D97E + V112A + L41A relative to wt
Description: as §1, §2

[2] = target: T1, C-X-C motif chemokine receptor 4 (CXCR4) on SupT1 cells (human (endogenous in SupT1), UniProt P61073 1-352); experiment: flow cytometry on cells; 12G5 antibody competition on SupT1 cells; peptides in PBS with APC-conjugated 12G5 at a concentration close to its EC50, 4 °C, 2 h; MFI normalized to PBS control; IC50 by nonlinear regression; conditions: one partner purified
T1 construct: CXCR4 as expressed on SupT1 cells; source: endogenous, on SupT1 cells
T1 sequence (P61073 whole entry): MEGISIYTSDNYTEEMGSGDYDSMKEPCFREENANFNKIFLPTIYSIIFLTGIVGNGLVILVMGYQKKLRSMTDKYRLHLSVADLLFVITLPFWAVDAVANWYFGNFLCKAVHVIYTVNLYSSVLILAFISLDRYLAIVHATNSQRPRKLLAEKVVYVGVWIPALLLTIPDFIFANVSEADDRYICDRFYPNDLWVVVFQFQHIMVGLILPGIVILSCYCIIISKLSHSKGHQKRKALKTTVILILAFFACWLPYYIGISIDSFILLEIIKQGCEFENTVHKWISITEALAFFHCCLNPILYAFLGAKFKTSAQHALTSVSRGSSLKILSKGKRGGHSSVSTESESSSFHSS

CXCR4 D97E + V112A = target: T2, CXCR4 D97E + V112A (human, UniProt P61073-1 1-352, D97E | V112A); experiment: flow cytometry on cells; 12G5 antibody competition on 293T cells transiently transfected with CXCR4 wt or mutants (IRES-eGFP vector), eGFP-positive cells gated; serially diluted peptide with a constant concentration of CXCR4 antibody clone 12G5, 2 h; bound antibody read; IC50 by nonlinear regression; conditions: one partner purified
T2 construct: human CXCR4, isoform 1 or b; also called D97E plus V112A; source: 293T cells, transiently transfected (pcDNA3.1 CXCR4-IRES-eGFP), on cells
T2 sequence (P61073 whole entry D97E/V112A, canonical isoform): as the sequence (P61073 whole entry) above, with D97E, V112A counted along it

Molecule: IVRWSKKVPCVS [WSC02, first-generation C-terminally truncated 12-mer derivative of EPI-X4 with four substitutions]
- Fold change (CXCR4 L41A): 1.5
- Fold change (CXCR4 D97E): 8
- Fold change (CXCR4 D97S): 18
- Fold change (CXCR4 D97N): 466
- Fold change (CXCR4 V112A): 0.6
- Fold change (CXCR4 V112L): 0.4
- Fold change (CXCR4 D187E): 0.4
- Fold change (CXCR4 D97E + V112L): 1.8
- Fold change (CXCR4 V112A + L41A): 4
- Fold change [1]: 5

B1: EPI-X4 (Alb408-423) (peptide)
peptide: LVRYTKKVPQVSTPTL
notes: source: synthetic peptide (Fmoc solid-phase synthesis, HPLC-purified)
- IC50 [2]: 2.39 µM
- IC50 (CXCR4 D97E + V112A): 18 µM

From publication PMC8458281, “Computational modeling and experimental validation of the EPI-X4/CXCR4 complex allows rational design of small peptide antagonists” (Communications Biology, 2021)
